Legend:
[1] = test system: Zluc cells; experiment: Cytotoxicity evaluation in Zluc cells (CellTiter-Blue); format: cell-based, human; conditions: read-out: HCV Replicon CC50
Method: For cytotoxicity evaluation, Zluc cells were treated with compound as described herein, and cell viability was monitored using the CellTiter-Blue Cell Viability Assay (Promega) by adding 20 μL of the assay solution to each well. The plates were then incubated at 37° C./5% CO2 for at least 3 hours.

[2] = biological target: T1, cathepsin A (CatA) (Homo sapiens, UniProt P10619); experiment: Hydrolysis of prodrugs by Cathepsin A; format: in vitro ADME
T1 sequence (P10619 29-326 limits assumed): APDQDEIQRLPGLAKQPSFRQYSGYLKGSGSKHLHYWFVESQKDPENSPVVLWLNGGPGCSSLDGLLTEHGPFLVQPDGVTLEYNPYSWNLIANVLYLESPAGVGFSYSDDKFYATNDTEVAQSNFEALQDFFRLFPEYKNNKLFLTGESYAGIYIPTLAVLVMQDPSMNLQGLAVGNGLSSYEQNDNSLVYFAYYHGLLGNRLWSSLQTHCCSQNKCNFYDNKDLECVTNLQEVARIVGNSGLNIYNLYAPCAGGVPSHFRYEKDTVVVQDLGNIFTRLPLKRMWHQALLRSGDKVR
T1 sequence (P10619 327-480 limits assumed): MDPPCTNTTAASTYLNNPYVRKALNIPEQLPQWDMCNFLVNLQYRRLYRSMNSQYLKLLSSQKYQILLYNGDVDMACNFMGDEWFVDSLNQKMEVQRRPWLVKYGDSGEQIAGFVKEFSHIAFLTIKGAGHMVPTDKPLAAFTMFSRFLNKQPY
Method: CatA, cathepsin L (CatL) and CES1 were purchased from R & D Systems (Minneapolis, Minn.). Prior to the enzymatic hydrolysis reactions, CatA was activated according to the manufacturer's instruction. Briefly, CatA (0.05 μg/μL) was incubated with CatL (0.005 μg/μL) for 30 min at 37° C. in 25 mM MES pH 6.0 containing 5 mM DTT. The reaction was stopped by addition of the CatL specific inhibitor E64 (10 μM).
The CatA assay was performed at 37° C. The reaction mixture contained 25 mM MES buffer pH 6.0, 100 mM NaCl, 4 mM DTT and 100 μM of the compound. The reaction was started by addition of the activated CatA enzyme to a final concentration of 0.005 μg/μL. […] Reactions were stopped by mixing the sample with an equal volume of ice-cold methanol, and were loaded on a HPLC for analysis.

[3] = test system: Huh-7 cells; experiment: Release of active metabolite in Huh-7 cells; format: in vitro ADME, human
Method: Huh-7 cells were plated in 1 mL culture medium (DMEM, containing glucose, L-glutamine and sodium pyruvate, 10% FBS, 100 IU/mL penicillin, 100 μg/mL streptomycin, 2 mM GlutaMAX, 1% MEM non-essential amino acids) at the concentration 0.8, 0.4 and 0.2 million cells per well on 6 well plates for 24, 48 and 72 hr treatment, respectively. Plated cells were incubated overnight at 37° C. in an incubator.
The following morning test compound was diluted to 20 μM from a stock solution in DMSO in fresh culture medium pre-warmed to 37° C. and 1 mL of the solution/well was added to cells. A final medium volume per well was 2.0 mL, test compound concentration in well was 10 μM and final DMSO concentration was 0.1%.
After 24, 48 or 72 hr, the medium was carefully removed and cell monolayers were washed twice with 2 mL ice-cold PBS per well. Following the last wash, all PBS was carefully removed and 1.0 mL of extraction solution (ice-cold 70% methanol) added. The plate was tightly covered with Parafilm, plastic plate cover and Parafilm again and an intracellular content was extracted at −20° C. for 24 hr.
After 24 hr the extracts were transferred into polypropylene microfuge tubes and dry on a refrigerated centrivap concentrator. Dry residues were reconstituted in 250 μL of HPLC-grade water and centrifuged at 16,000×g for 10 min. Aliquots (100 μL each) of the supernatants were transferred into a 96 well plate and internal standard (4 ng/mL final concentration) was added as the internal standard (IS) for LC-MS/MS analysis.

[4] = biological target: T2, carboxylesterase 1 (CES1) (Homo sapiens, UniProt P23141); experiment: Hydrolysis of prodrugs by Carboxylesterase 1; format: in vitro ADME; conditions: for CES1 hydrolysis: 100 μM compound, 37° C., pH 7.5
T2 construct: purchased R & D Systems (Minneapolis, Minn.)
T2 sequence (P23141 18-567): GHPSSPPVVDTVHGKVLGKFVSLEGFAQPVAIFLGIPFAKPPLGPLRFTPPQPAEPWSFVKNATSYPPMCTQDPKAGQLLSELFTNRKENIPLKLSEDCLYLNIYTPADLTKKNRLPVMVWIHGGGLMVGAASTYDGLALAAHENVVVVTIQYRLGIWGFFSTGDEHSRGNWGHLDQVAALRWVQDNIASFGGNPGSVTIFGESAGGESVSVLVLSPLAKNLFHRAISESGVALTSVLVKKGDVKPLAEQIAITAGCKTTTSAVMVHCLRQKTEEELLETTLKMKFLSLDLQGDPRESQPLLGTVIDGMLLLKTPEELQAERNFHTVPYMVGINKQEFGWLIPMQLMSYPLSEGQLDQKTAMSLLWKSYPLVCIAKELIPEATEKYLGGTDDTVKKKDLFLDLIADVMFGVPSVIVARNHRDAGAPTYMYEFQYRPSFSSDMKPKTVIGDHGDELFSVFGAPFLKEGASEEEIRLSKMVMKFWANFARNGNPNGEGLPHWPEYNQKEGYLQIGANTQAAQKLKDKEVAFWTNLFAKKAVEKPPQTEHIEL
Method: CES1 assay was performed at 37° C. in the reaction mixture containing 50 mM Tris/HCl buffer pH 7.5 and 100 μM of the compound. Reaction was started by addition of the CES1 to the final concentration 0.01 μg/mL. 100 μL aliquots were taken after 0.5 min, 3 hrs and 21 hrs of the incubation and the reaction was stopped by mixing with 100 μl of the ice-cold methanol prior to HPLC analysis.
Samples were analyzed by HPLC using 5 μC-18, 4.6×250 mm Phenomenex® Columbus column (Phenomenex USA, Calif.). The mobile phase consisted of buffer A (25 mM potassium phosphate with 5 mM tetrabutylammonium dihydrogen phosphate pH 6.3) and buffer B (100% methanol).

[5] = Plasma nucleoside and liver triphosphate PK after single oral dose (Example 4); format: in vivo, CD-1 mice; conditions: at 1 μmol/kg, single oral dose 10 mg/kg in PEG 200
Method: Plasma samples were analyzed for nucleoside by LC-MS/MS. The internal standard (IS) was either 2′-MeG-D3 or tiapride. For protein precipitation and extraction, each plasma sample (50 μL) was treated with 500 μL of 0.2% formic acid in acetonitrile and 20 μL of the internal standard working solution. After vortexing and centrifugation, 500 μL of the sample extracts were transferred to a new plate, dried under N2 at ˜28° C. and reconstituted with 75 μL of 0.2% FA in water. The extracts were chromatographed on an Aquasil C18 column using a gradient system of 0.2% formic acid in water and acetonitrile. The analytes were detected and quantified by tandem mass spectrometry in positive ion mode on an MDS Sciex API5000 equipped with a Turbo Ionspray® interface. The calibration range was 0.500 (LLOQ) to 200 ng/mL in mouse plasma.
(§1) Internal standard solution was added to the homogenate followed by neutralization with 20% ammonium hydroxide solution and addition of 500 μL 1% formic acid. The tissue samples were extracted by weak anion exchange solid phase extraction (SPE). Post extraction, the eluates were evaporated under nitrogen, followed by reconstitution before injection onto the LC-MS/MS system.

[6] = test system: HCV genotype 1b replicon; experiment: HCV replicon assay; format: cell-based; conditions: Zluc (Huh-7-derived) cells, luciferase reporter, 72 hours; read-out: HCV Replicon EC50
Method: Huh-7-derived cell line (Zluc) that harbors an HCV genotype 1b replicon and a luciferase reporter gene was grown in Dulbecco's Modified Eagle Medium (DMEM) supplemented with 10% fetal bovine serum, 2 mM GlutaMAX, 1% MEM nonessential amino acids, 100 IU/mL penicillin, 100 μg/mL streptomycin, and 0.5 mg/mL Geneticin® (G418). For dose response testing the cells were seeded in 96-well plates at 7.5×10^3 cells per well in a volume of 50 μL, and incubated at 37° C./5% CO2. Drug solutions were made up freshly in Huh-7 media as 2× stocks. Ten additional 5-fold dilutions were prepared from these stocks in DMEM without G418. At least three hours after Zluc cells were seeded, drug treatment was initiated by adding 50 μL of drug dilutions to the plates in duplicate. Final concentrations of drug ranged from 100 μM to […]. Cells were then incubated at 37° C./5% CO2. Alternatively, compounds were tested at two concentrations (1 μM and 10 μM). […] For this, media was removed from the plates via gentle tapping. Fifty microliters of ONE-glo luciferase assay reagent was added to each well. The plates were shaken gently for 3 min at room temperature and luminescence was measured on a Victor^3 V 1420 multilabel counter (Perkin Elmer) with a 1 second read time using a 700 nm cut-off filter. The EC50 values were calculated from dose response curves from the resulting best-fit equations determined by Microsoft Excel and XLfit 4.1 software. When screening at two fixed concentrations, the results were expressed as % inhibition at 1 μM and 10 μM.

[7] = Liver triphosphate and plasma prodrug and nucleoside PK after single oral dose (Example 5); format: in vivo, Cynomolgus monkeys; conditions: oral 10 mg/kg
Method: For each compound, a single oral dose at 10 mg/kg in PEG 200 (dose volume 3 mL/kg) was administered to cynomolgus monkeys. Untreated animals were used for the collection of control liver. Plasma samples were collected at 0.5, 1, 2, 4, 6, 8, 12 and 24 hours for compound 37, diastereomer 2.
Plasma samples were analyzed for the prodrug and nucleoside by LC-MS/MS. For protein precipitation and extraction, each plasma sample (50 μL) was treated with 500 μL of 0.2% formic acid in acetonitrile and 20 μL of an appropriate internal standard working solution. After vortexing and centrifugation, 500 μL of the sample extracts were transferred to a new plate, dried under N2 at ˜28° C. and reconstituted with 75 μL of 0.2% FA in water. The extracts were chromatographed on an Aquasil C18 column using a gradient system of 0.2% formic acid in water and acetonitrile. The analytes were detected and quantified by tandem mass spectrometry in positive ion mode on an MDS Sciex API4000 equipped with a Turbo Ionspray® interface.
as §1, with “Liver samples were analyzed for the relevant nucleoside triphosphate by LC-MS/MS. […] Appropriate internal” for “Internal”

Compound: CCCCOC(=O)[C@@H](C)NP(=O)(OC[C@H]1O[C@@H](n2ccc(=O)[nH]c2=O)[C@](C)(Cl)[C@@H]1O)Oc1ccccc1 (single isomer, unassigned) [202i Diastereomer 1]
- CC50 [1]: > 50 µM

Compound: C[C@@H](NP(=O)(OC[C@H]1O[C@@H](n2ccc(=O)[nH]c2=O)[C@](C)(Cl)[C@@H]1O)Oc1ccccc1)C(=O)OCc1ccccc1 (single isomer, unassigned) [205i Diastereomer 1]
- CC50 [1]: > 50 µM

Compound: CC(C)OC(=O)[C@H](C)N[P@](=O)(OC[C@H]1O[C@@H](n2ccc(=O)[nH]c2=O)[C@](C)(F)[C@@H]1O)Oc1ccccc1 (single isomer, unassigned) [GS-7977, reference compound]
- Hydrolysis by CatA [2]: hydrolyzed
- CatA hydrolysis ([2]; @ 18 h, 100 μM compound, 37° C., pH 6.0): 100% @
- CatA cleavage efficiency relative to the RP diastereoisomer ([2]; GS-7977 (SP) versus RP diastereoisomer): 10 times
- Huh-7 AUC0-72 ([3]; Table 7): 63555 pmol*hr/10^6cells
- Hydrolysis by CES1 [4]: hydrolyzed
- CES1 hydrolysis ([4]; 3 h): 12%/3 h;
- CES1 hydrolysis ([4]; 21 h): 15%/21 h

Compound: CC(C)OC(=O)[C@H](C)NP(=O)(OC[C@H]1O[C@@H](n2ccc(=O)[nH]c2=O)[C@](C)(Cl)[C@@H]1O)Oc1ccccc1 (single isomer, unassigned; diastereomer 1) [40ii Diastereomer 1]
- Ms Plasma nucleoside AUC [5]: 0.00349 M·s
- Cmax ([5]; read-out: Ms Plasma nucleoside Cmax): 86 nM
- EC50 [6]: < 0.25 µM
- Huh-7 TP AUC ([3]; 10 μM test compound): 4380 pmol.hr/mill cells
- Huh-7 TP Cmax ([3]; 10 μM test compound): 123 pmol/mill cells
- Huh-7 TP (24 hr) ([3]; 10 μM test compound, 24 hr): 25
- Huh-7 TP (48 hr) ([3]; 10 μM test compound, 48 hr): 96
- Huh-7 TP (72 hr) ([3]; 10 μM test compound, 72 hr): 123
- CC50 [1]: > 50 µM

Compound: CC(C)OP1(=O)OC[C@H]2O[C@@H](n3ccc(=O)[nH]c3=O)[C@](C)(Cl)[C@@H]2O1 (single isomer, unassigned; diastereomer 2) [37 Diastereomer 2]
- Nucleoside triphosphate in Liver C6 ([7]; 6 hours post dose, normalized to 1 μmol/kg dose): 1500 pmol/g
- Nucleoside triphosphate in Liver Tmax [7]: 12 h
- Plasma nucleoside Tmax [7]: 4 h
- Plasma prodrug Tmax [7]: 4 h
- Nucleoside triphosphate in Liver AUC0-24 ([7]; normalized to 1 μmol/kg dose): 29000 pmol·h/g
- Nucleoside triphosphate in Liver Cmax ([7]; normalized to 1 μmol/kg dose): 1700 pmol/g
- Plasma nucleoside AUC0-24 ([7]; normalized to 1 μmol/kg dose): 0.65 µM·h
- Plasma prodrug AUC0-24 ([7]; normalized to 1 μmol/kg dose): 4 µM·h
- Cmax ([7]; normalized to 1 μmol/kg dose, read-out: Plasma nucleoside Cmax): 51 nM
- Cmax ([7]; normalized to 1 μmol/kg dose, read-out: Plasma prodrug Cmax): 840 nM

Compound: CCCCOC(=O)[C@@H](C)NP(=O)(OC[C@H]1O[C@@H](n2ccc(=O)[nH]c2=O)[C@](C)(Cl)[C@@H]1O)Oc1ccccc1 (single isomer, unassigned; diastereomer 2) [202i Diastereomer 2]
- Ms Plasma nucleoside AUC [5]: 0.00612 M·s
- EC50 [6]: 0.25 to 1 µM
- CC50 [1]: > 50 µM

Compound: C[C@@H](NP(=O)(OC[C@H]1O[C@@H](n2ccc(=O)[nH]c2=O)[C@](C)(Cl)[C@@H]1O)Oc1ccccc1)C(=O)OCc1ccccc1 (single isomer, unassigned; diastereomer 2) [205i Diastereomer 2]
- Ms Plasma nucleoside AUC [5]: 0.00612 M·s
- EC50 [6]: 0.25 to 1 µM
- CC50 [1]: > 50 µM

From patent US10717758B2, “D-amino acid compounds for liver disease” (priority 2012, dated 2020)
